Values of other authors in US20040142045A1, “THERAPEUTIC TREATMENT FOR BLOOD SUGAR REGULATION” (priority 2003, published 2004).
Where two headings read alike, the source gives them in different places.

What was measured:
[1] = animal models of insulin resistance and Type 2 diabetic patients
[2] = diabetic animals
glucokinase = conditions: supplementation
[3] = insulin dependent diabetes mellitus
[4] = experimental animals
[5] = Type 1 and Type 2 diabetics, supplementation
[6] = diabetics, dietary supplementation
[7] = another study, supplementation
[8] = mice with abnormally high glucose concentrations

O=C(O)CCCCC1CCSS1 (stereo not drawn) [Alpha lipoic acid]
insulin regulated glucose disposal [1]: improve | blood glucose levels [2]: lower | glucose uptake into the peripheral tissues [2]: enhanced

O=C(O)CCCC[C@@H]1SC[C@@H]2NC(=O)N[C@@H]21 [Biotin]
activity of glucokinase (glucokinase): increase | fasting blood glucose levels [3]: significant reduction

NC(=O)c1cccnc1 [Nicotinamide]
development of diabetes [4]: prevent

[Zn] [Zinc]
insulin levels [5]: improve

[Cr] [chromium]
fasting blood glucose levels [6]: decrease

O=S(=O)([O-])[O-].[O]=[V+2] [vanadyl sulfate]
fasting blood glucose and hepatic insulin resistance [7]: modest reductions

methylhydroxy chalcone polymer
glucose concentrations [8]: fell dramatically
